# Experimental data: patent US20200239962A1, “COMPOSITIONS AND METHODS FOR DETECTING A NEOPLASIA” (The Johns Hopkins University, priority 2010, published 2020)
# Tested on: BNC1 and ADAMTS1 gene expression in pancreatic cancer cell lines (Panc1, MIA-PaCa2, Capan1, PL45)
# Assay: Quantitative RT-PCR re-expression of silenced BNC1 and ADAMTS1 after drug treatment
# Format: cell-based, human
# Details: 5 uM DAC or 300 nM TSA, relative to mock-treated cells; TSA result excepts PL45
# Experimental: FIGS. 2A, 2B, and 2C depict promoter methylation gels and corresponding bar graphs, a CpG methylation diagram, and a schematic depicting methylation-on-bead (MOB) technology, respectively. […] M=methylation signal; U=unmethylated signal. IVD=in vitro methylated DNA. Real-time RT-PCR expression is shown as fold change ±SE relative to mock-treated cells during 5 uM 5-Aza-deoxycitidine (DAC) and 300 nM Trichostatin A (TSA) treatments. […] The BNC1 promoter regions is depicted as a line, with CpG regions designated as vertical slashes. TIS indicates the transcriptional start site. Location of CpG sites (bisulfite priners (BST): upstream region from −331 to +36 relative to transcriptional start site). […] Samples are analyzed using MS-qFRET or gel electrophoresis.
# This genome-wide DNA hypermethylome screening is based on a pharmacological approach using 5-deoxy-azacytidineand TSA, which has shown an excellent correlation between promoter DNA methylation and inhibition of gene expression and re-expression after treatment with a DNA demethylating drug, such as 5-deoxy-azacytidine, in prior studies on breast and colorectal cancer. Here, promoter methylation of BNC1 and ADAMTS1 was tested, and correlated with a lack of gene expression in pancreatic cancer cell lines (Panc1, MIA-PaCa2, Capan1, and PL45) using quantitative RT-PCR (qRT-PCR) (FIG. 2A, upper panel). […]
row,SMILES,re-expression of BNC1 and ADAMTS1 (qRT-PCR)
1,Nc1ncn([C@H]2C[C@H](O)[C@@H](CO)O2)c(=O)n1 [5-deoxy-azacytidine],significant re-expression
2,"CC(/C=C/C(=O)NO)=C\[C@@H](C)C(=O)c1ccc(N(C)C)cc1 [TSA, Trichostatin A]",minimal re-expression
